“Also recorded” adds a separate entry of the source. Like-named read-outs stand apart in the source and are kept apart here.
Assays:
BAE cells [1] = system: BAE cells
[2] = Binding of GSAO to dithiols, loss of thiols in DTNB assay
Description: (§1) FIG. 11. Titration of DMP or cysteine with GSAO. DMP (15 μM corresponding to 30 μM thiols) is or cysteine (28 μM) was incubated with GSAO (0–50 μM) for 10 minutes. DTNB (950 μM) was then added and the reactions incubated for a further 10 minutes. The concentration of thiol in the reactions was determined from the absorbance of the TNB dianion at 412 nm.
FIG. 12. Interaction of GSAO with synthetic. Deptide and protein dithiols. DMP (A) (15 μM), 6,8-thioctic acid (B) ([…]), dithiothreitol (C) (8.5 μM), TrpCysGlyProCysLys (D) (4.6 μM), TrpCysGlyHisCysLys (E) (5.5 μM) or thioredoxin (F) (4.1 μM corresponding to 20.6 μM thiols) was incubated with GSAO (0–56 μM) for 10 minutes. […] The concentration of thiol in the reactions was determined from the absorbance of the TNB dianion at 412 nm. […]
(§2) A stock solution of DMP (5 μL, 50 μmol) was dissolved in DMSO (995 μL), giving a concentration of 50 mM DMP. […] The activity of the arsenical could then be determined by the titration of varying amounts of arsenical against the DMP working solution (10 μL) in a 96-well microbitre plate, with the total volume made up to 195 μL by addition of buffer. […] The absorbance at 412 nm due to the formation of the TNB dianion was measured using a Molecular Devices Thermomax Plus (Palo Alto, Calif.) microplate reader. […]
(§3) Binding of GSAO to dithiols was measured from loss of thiols using the DTNB assay described above. […]

BAE cells [3] = experiment: cells; settings: Bos taurus, Endothelial cell, 24 h, read-out: IC50 for viability
adherent BAE cells = experiment: Membrane permeability, tritiated GSAO in cytosol; assay type: in vitro ADME, bovine; settings: 50 μM GSAO, 1 hour
Description: Human T cells (A3.01) or adherent BAE cells were incubated with complete medium containing 50 μM GSAO and ˜100,000 counts per minute of tritiated GSAO for 1 or 72 hours. Tritiated GSAO was prepared exactly as described for GSAO except that glycine-2-^3H-glutathione (NEN, Boston, Mass.) was used in place of cold glutathione. The cells were washed and lysed by two cycles of freezing and thawing. The cytosolic constituents were collected by differential centrifugation (Ausbel et al., 2000) and the tritiated GSAO was measured. Only 0.5% of the total tritiated GSAO was found in the T cell cytosol and 0.04% in the BAE cytosol after 1 hour. Moreover, only 4.5% of the GSAO penetrated the T cell membrane after 72 hours of culture.

[4] = system: adjuvant-induced arthritis, rat ankles; settings: in vivo
Thioredoxin = target: T1, Thioredoxin (Homo sapiens, UniProt P10599); experiment: Binding of GSAO to thioredoxin active site dithiol, DTNB assay
T1 construct: purchased American Diagnostica, Greenwich, Conn; host or cells: E. coli
T1 sequence (P10599 1-105): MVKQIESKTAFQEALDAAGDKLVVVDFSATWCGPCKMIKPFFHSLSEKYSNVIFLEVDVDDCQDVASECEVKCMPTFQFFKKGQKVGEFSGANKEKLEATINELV
Description: (§4) FIG. 12. Interaction of GSAO with synthetic. Deptide and protein dithiols. DMP (A) (15 μM), 6,8-thioctic acid (B) ([…]), dithiothreitol (C) (8.5 μM), TrpCysGlyProCysLys (D) (4.6 μM), TrpCysGlyHisCysLys (E) (5.5 μM) or thioredoxin (F) (4.1 μM corresponding to 20.6 μM thiols) was incubated with GSAO (0–56 μM) for 10 minutes. DTNB (950 μM) was then added and the reactions incubated for a further 10 minutes. The concentration of thiol in the reactions was determined from the absorbance of the TNB dianion at 412 nm. The solid lines represent the best non-linear least squares fit of the data to Equation 1 (A to E) or Equation 2 (F) and have been drawn using the parameter estimates in Table 1. The dotted line in part A represents a simulated titration assuming an infinite affinity of GSAO for the dithiol. […]
as §2

[5] = Binding of GSAO to dithiols, loss of thiols in DTNB assay; settings: errors are 1 SD, read-out: Dissociation Constant
Description: as §4, with “1.” for “1. The dotted line in part A represents a simulated titration assuming an infinite affinity of GSAO for the dithiol.”
as §2, §3

[6] = Titration of cysteine with GSAO, DTNB assay; assay type: binding; settings: cysteine 28 μM, GSAO 0–50 μM, 10 minutes
Description: as §1
A stock solution of DMP (5 μL, 50 μmol) was dissolved in DMSO (995 μL), giving a concentration of 50 mM DMP. A second dilution of the 50 mM DMP stock solution (10 μL) in pH 7.0 buffer (0.1 M HEPES, 0.3 M NaCl, 1 mM EDTA) (990 μL) gave a working solution of 500 ? M DMP. The activity of the arsenical could then be determined by the titration of varying amounts of arsenical against the DMP working solution (10 μL) in a 96-well microbitre plate, with the total volume made up to 195 μL by addition of buffer. After a 10 minute incubation at room temperature, during which time the solutions were agitated on a plate shaker, 5 μL of a 37.9 mM stock solution of DTNB (15 mg) in DMSO (1 mL) was added, and the plate incubated with shaking for another 10 minutes. The absorbance at 412 nm due to the formation of the TNB dianion was measured using a Molecular Devices Thermomax Plus (Palo Alto, Calif.) microplate reader. The extinction coefficient for the TNB dianion at pH 7.0 is 14,150 M^−1cm^−1 at 412 nm (Riddles et al., 1983).

SMILES	effect on BAE viability (BAE cells [1])	interaction of GSAO with DMP in DTNB titration ([2]; DMP 15 μM, GSAO 0–50 μM, 10 minutes)	Kd ([2]; ring size 5, errors are 1 SD, read-out: Dissociation Constant)	IC50 (BAE cells [3])	total tritiated GSAO found in the cytosol (adherent BAE cells)	pannus formation [4]	periarticular inflammation (density of inflammatory cells) [4]	signs of new bone formation (periosteal reaction) [4]	Kd (Thioredoxin)	higher affinity for thioredoxin than for the thioredoxin active site hexapeptide (Thioredoxin; thioredoxin vs TrpCysGlyProCysLys)	Kd ([5]; ring size 6)	Kd ([5]; ring size 7)	interaction of GSAO with cysteine in DTNB titration [6]
N[C@@H](CCC(=O)N[C@@H](CSCC(=O)Nc1ccc([As](=O)(O)O)cc1)C(=O)NCC(=O)O)C(=O)O [GSAA, 4-(N-(S-glutathionylacetyl)amino)phenylarsonic acid, reference compound]	no significant effect	–	–	–	–	–	–	–	–	–	–	–	–
NC(CCC(=O)NC(CSCC(=O)Nc1ccc([As]=O)cc1)C(=O)NCC(=O)O)C(=O)O (stereo not shown) [GSAO, 4-(N-(S-glutathionylacetyl)amino)-phenylarsenoxide]	–	bound to DMP and prevented interaction of the dithiol with DTNB	130 nM	~100000 nM	0.04%	significantly reduced; also recorded: little to no pannus formation	significantly reduced; also recorded: almost no inflammatory cells	none	370 ± 180 nM	~4 fold	200 ± 50 nM	420 nM	any interaction of GSAO with cysteine was displaced by DTNB

Reference: patent US7186695B2 (priority 2001, dated 2007)
